Tested on: GLS1
Assay: Targeted LC-MS/MS of intracellular metabolites in PAECs on soft or stiff matrix with GLS inhibitors
Format: cell-based, human
Settings: stiff matrix, BPTES 10 μM, DON 5 μM, C968 10 μM
Method: HEK293T cells (American Type Culture Collection) were cultivated in DMEM containing 10% fetal bovine serum (FBS). Primary human pulmonary arterial endothelial cells (PAECs) were grown in EGM-2 cell culture media (Lonza), and experiments were performed at passages 3 to 6. Primary human pulmonary arterial smooth muscle cells (PASMCs) were cultured in SmGM-2 cell culture media (Lonza), and experiments were performed at passages 3 to 9. Inhibitors of GLS1 (2, 3): BPTES (Bis-2-(5-phenylacetamido-1,3,4-thiadiazol-2-yl)ethyl sulphide), DON (6-Diazo-5-oxo-L-norleucine), and C968 (Glutaminase Inhibitor, Compound 968, 5-(3-Bromo-4-(dimethylamino)phenyl)-2,2-dimethyl-2,3,5,6-tetrahydrobenzo[a]phenanthridin-4(1H)-one) were purchased from Sigma-Aldrich and used at concentration of 10 μM, 5 μM and 10 μM respectively. Glutamate was purchased from Sigma Aldrich and used at concentration of 2 mM. Aspartate was purchased from Sigma Aldrich and used at concentration of 10 mM.
Metabolite extraction was performed essentially as described with minor modifications (35). Briefly, metabolites were extracted from cultured cells and CD31+ cells on dry ice using 80% aqueous methanol pre-cooled at −80° C. Metabolites were extracted from plasma pre-cleared by centrifugation at 20,000×g for 10 min at 4° C. Supernatants were extracted with four volumes of 100% methanol pre-cooled at −80° C. for four hours at −80° C. An internal standard, [^13C4]-2-oxoglutarate (Cambridge Isotope Laboratories) was added during metabolite extraction. Insoluble material from both cell and plasma extractions was removed by centrifugation at 20,000×g for 15 min at 4° C. The supernatant was analysed by targeted LC-MS/MS as previously described (36). Metabolites were separated using a ZIC-HILIC stationary phase (150 mm×2.1 mm×[…]; Merck). The MS parameters were optimized using a glutamine standard solution. Monitored mass transitions were 87>87 (pyruvate), 115>73+99 (succinate), 132>88 (aspartate), 145>101 (20G), […] (glutamine), 146>128 (glutamate), and 149>105 ([^13C4]-20G). Mass transitions and retention time windows were confirmed by the analysis of neat and matrix-spiked standards. Peak areas were quantified by Xcalibur Software (Thermo) and manually reviewed.
To determine whether GLS1 is critical for stiffness-induced and YAP/TAZ-dependent glutaminolysis, PAECs were cultivated in soft or stiff matrix, and exposed to known inhibitors of two isoforms of GLS1 (KGA and GAC), BPTES (Bis-2-(5-phenylacetamido-1,3,4-thiadiazol-2-yl)ethyl sulphide), DON (6-Diazo-5-oxo-L-norleucine), or CB-968 (glutaminase inhibitor, compound 968, C-968) (FIG. 3A-C) or siRNA (si-GLS; FIG. 3D-G). As quantified by LC-MS/MS, inhibition of GLS in PAECs blunted the stiffness-induced processes of glutamine consumption, glutamate production, and aspartate production (FIGS. 3A and E). […] Similar alterations of metabolic activity were observed when inhibiting GLS1 in PASMCs (data not shown).

## CN(C)c1ccc(C2Nc3ccc4ccccc4c3C3=C2C(=O)CC(C)(C)C3)cc1Br (centres unmarked) [C968, 5-(3-Bromo-4-(dimethylamino)phenyl)-2,2-dimethyl-2,3,5,6-tetrahydrobenzo[a]phenanthridin-4(1H)-one]
  alterations of metabolite expression in stiff matrix (stiffness-induced glutamine consumption, glutamate production, aspartate production): blunted
  lactate/pyruvate ratio (glycolysis): decreased

— patent publication US11672795B2, “Compositions and methods for treating pulmonary vascular disease” (UNIVERSITY OF PITTSBURGH-OF THE COMMONWEALTH SYSTEM OF …, priority 2016, dated 2023)
